The test system of series [1] is panel of human cancer cells. The experiment in a line: MTT cytotoxicity assay, panel of human cancer cells. The conditions noted are these: 72 hours, read-out: mean IC50, cell cytotoxicity. In kind it is cell-based. The method, then: (§1) The test compound of N-desmethyldauricine was dissolved in DMSO at a final concentration of 100 mmol/L and stored at −20° C. Cytotoxicity was assessed using the 3-(4,5-dimethylthiazol-2-yl)-2,5-diphenyltetrazolium bromide assay as previously described^17. Cell number, 4000-8000 of HeLa (human cervical cancer), MCF-7 (human breast cancer), HepG2 (human liver cancer), Hep3B (human liver cancer), H1299 (human lung cancer), A549 (human lung cancer), PC3 (human prostate cancer), LLC-1 (mouse Lewis lung carcinoma) and LO2 (human normal liver) cells were seeded on 96-well plates per well, respectively. After overnight pre-incubation, the cells were exposed to different concentrations of N-desmethyldauricine (namely […], 0.039 μmol) for 3 days. Subsequently, 10 μL of MTT reagents was added to each well and incubated at 37° C. for 4 hours followed by the addition of 100 μL solubilization buffer (10% SDS in 0.01 mol/L HCl) and overnight incubation. Absorbance at 585 nm was determined from each well on the following day. The percentage of cell viability was calculated using the following formula: Cell viability (%)=Cells number treated/Cells number DMSO control×100. Data was obtained from three independent experiments.
In general terms: Tetrazolium assays rely on reduction of a dye to a coloured formazan, in cell work by metabolically active cells.

The test system of series [2] is wild type Atg7 cells (Atg7+/+) mouse embryonic fibroblasts. The experiment in a line: GFP-LC3 puncta in Atg7 wild-type MEFs. In kind it is cell-based. The method, then: GFP-LC3 puncta formation was quantified as previously described^15. In brief, both Atg7 wild-type and deficient mouse embryonic fibroblasts (MEFs) grown on coverslips in a 6-well plate were treated with indicated concentrations of N-desmethyldauricine. Both Atg7 wild-type and deficient mouse embryonic fibroblasts were then fixed in 4% paraformaldehyde for 20 minutes at room temperature and then rinsed with PBS. Slides were mounted with FluorSave™ mounting media (Calbiochem, San Diego, Calif.) and examined by fluorescence microscopy. The number of GFP-positive cells with GFP-LC3 puncta formation was examined under the Nikon ECLIPSE 80i microscope. Representative images were captured with CCD digital camera Spot RT3™ (Diagnostic Instruments, Inc., Melville, N.Y.). To quantify for autophagy, the percentage of cells with punctate GFP-LC3 fluorescence was calculated by counting the number of the cells with punctate GFP-LC3 fluorescence in GFP-positive cells. A minimum of 150 cells from 3 randomly selected fields was scored.

The target in series [3] is T1, SERCA1A (Oryctolagus cuniculus, UniProt P04191).
T1 construct: Purified Ca^2+ ATPase (SERCA1A) is prepared from female rabbit hind leg muscle; from tissue; host or cells: female rabbit hind leg skeletal muscle (sarcoplasmic reticulum)
T1 sequence (P04191 1-994 isoform P04191-2): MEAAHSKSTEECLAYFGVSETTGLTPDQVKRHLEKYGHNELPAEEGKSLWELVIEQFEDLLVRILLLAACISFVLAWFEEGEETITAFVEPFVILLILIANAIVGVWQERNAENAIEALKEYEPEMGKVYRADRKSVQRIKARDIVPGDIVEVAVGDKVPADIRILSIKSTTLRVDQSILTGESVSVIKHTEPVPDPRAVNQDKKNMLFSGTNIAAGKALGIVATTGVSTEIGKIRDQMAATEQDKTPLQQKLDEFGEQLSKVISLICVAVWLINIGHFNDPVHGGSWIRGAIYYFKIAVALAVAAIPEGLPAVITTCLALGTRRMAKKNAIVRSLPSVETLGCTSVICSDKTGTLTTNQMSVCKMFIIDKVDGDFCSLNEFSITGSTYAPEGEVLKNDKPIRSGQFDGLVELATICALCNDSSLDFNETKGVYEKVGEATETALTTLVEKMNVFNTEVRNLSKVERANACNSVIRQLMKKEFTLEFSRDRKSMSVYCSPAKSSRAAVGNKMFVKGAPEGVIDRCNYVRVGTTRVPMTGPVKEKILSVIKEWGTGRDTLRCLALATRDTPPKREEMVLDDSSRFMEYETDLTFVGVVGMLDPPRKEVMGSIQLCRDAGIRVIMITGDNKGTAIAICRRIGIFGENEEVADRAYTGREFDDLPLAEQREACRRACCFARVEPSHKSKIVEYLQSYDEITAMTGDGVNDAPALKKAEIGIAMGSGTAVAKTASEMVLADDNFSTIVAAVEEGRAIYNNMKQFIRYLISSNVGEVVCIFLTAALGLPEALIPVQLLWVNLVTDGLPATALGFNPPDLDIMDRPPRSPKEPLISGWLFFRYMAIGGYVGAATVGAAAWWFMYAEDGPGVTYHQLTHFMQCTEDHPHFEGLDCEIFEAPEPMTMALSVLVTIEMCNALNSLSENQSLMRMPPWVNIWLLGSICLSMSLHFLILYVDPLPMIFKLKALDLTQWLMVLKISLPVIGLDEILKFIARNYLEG
In words: Measurement of SERCA Ca2+ ATPase activity. It is filed as biochemical. The conditions noted are these: rabbit skeletal muscle SR, dose-dependent. The method, then:
Purified Ca^2+ ATPase (SERCA1A) is prepared from female rabbit hind leg muscle^24. ATPase activity is determined using the enzyme-coupled method utilizing pyruvate kinase and lactate dehydrogenase as previously described in Michelangeli et al. (1990)^25. All SERCA inhibition data is fitted to the allosteric dose versus effect equation using Fig P (Biosoft):
Activity=minimum activity+(maximum activity−minimum activity)/(1+([I]IC50)P).
In molecular docking, 5000 poses were generated during the initial phase of the docking calculation, out of which the best 1000 poses were chosen for energy minimization by 1000 steps of conjugate gradient minimizations. The performance of molecular docking was evaluated by comparing the docked pose with the experimental structure for N-desmethyldauricine in the X-ray co-crystallized complex. TG in the X-ray co-crystallized complexes was re-docked into the binding sites and the RMSD for re-docked result of TG is 1.78 Å. […] To ascertain whether the SERCA pump is suppressed by N-desmethyldauricine, SERCA inhibitory effect is quantified using purified rabbit skeletal muscle sarcoplasmic reticulum (SR) membranes to measure the expression of the SERCA1A isoform by the SR membrances^26. Most of the existing SERCA inhibitors show similar inhibitory effect in SERCA isoform ^15,16. […]

The subject of series [4] is EGFP-tagged mutant huntingtin (Q23, Q55, Q74). In words: Removal of mutant huntingtin by immunoblotting. In kind it is cell-based. The conditions noted are these: PC 12, 7.5 μM, 24 hours. The method, then: (§2) PC 12 cells were transfected transiently with EGFP-HDQ23/55/74 (Q23, Q55, Q74) plasmids for 24 hours using Lipofectamine Plus LTX reagent (Invitrogen) according to the manufacturer's protocol. The transfected cells were then treated with N-desmethyldauricine for 24 hours. The removal of mutant huntingtin, (Q23, Q55, Q74) were then quantitated by immunoblotting with antibody against EGFP.
Background: Immunoblotting shows a protein as a band on a membrane.

For series [5], the system named is mutant huntingtin overexpressed PC 12 cells. The experiment in a line: Viability of mutant huntingtin overexpressed PC 12 cells. It is filed as cell-based. The conditions noted are these: PC 12, 7.5 μM. On the procedure:
For cell viability assay measured by crystal violet staining, PC-12 cells were incubated in 35 mm disc followed by the addition of N-desmethyldauricine at 7.5 μM for 24 hours. The cells were then incubated with crystal violet for 10 minutes followed by a ddH2O wash. The stained cells image was captured by CCD digital camera Spot RT3™ under the Nikon ECLIPSE 80i microscope with 4× magnification. Cell viability was quantified by dissolving stained cells in 10% acetic acid (200 μL/well). The colorimetric reading of the solute mixture was then determined by spectrophotometer at OD 560 nm. The percentage of cell viability was calculated using the following formula: Cell viability (%)=Cells numbertreated/Cells numberDMSO control×100. Data was obtained from three independent experiments.
as §2

Series [6] concerns autophagy deficient cells (Atg7−/−). In words: Annexin V flow cytometry cell death, Atg7 deficient MEFs. In kind it is cell-based, mouse. To be noted: 10 μM, 24 h. On the procedure: Cell viability was measured using an annexin V staining kit (BD Biosciences, San Jose, Calif., USA). Briefly, Atg7 wild-type (Atg7^+/+ or Atg7-wt) and Atg7 deficient (Atg7^−/− or Atg7-ko) mouse embryonic fibroblasts (MEFs) were treated with the 10 μM N-desmethyldauricine for 24 h. Cells were then harvested and analysed by multiparametric flow cytometry using FITC-Annexin V and Propidium iodide staining (BD Biosciences, San Jose, Calif., USA) according to the manufacturer's instructions. Flow cytometry was then carried out using a FACSCalibur flow cytometer (BD Biosciences, San Jose, Calif., USA). Data acquisition and analysis was performed with CellQuest (BD Biosciences, San Jose, Calif., USA). Data were obtained from three independent experiments.
For orientation: In flow cytometry, cells or beads pass a laser one at a time.

Series [7] relates to human normal liver cells (LO2). In words: MTT cytotoxicity assay, normal liver cells. It is filed as cell-based. The conditions noted are these: read-out: IC50, cytotoxic effect. On the procedure: as §1

Where only a bound is given, the exact number is not on record here.

As usually defined, the IC50 is the concentration needed to halve the response being measured.

As to `COc1cc2c(cc1OC)[C@@H](Cc1ccc(Oc3cc(C[C@H]4NCCc5cc(OC)c(OC)cc54)ccc3O)cc1)N(C)CC2` [N-desmethyldauricine], the IC50 in series [1] is 8.23 to 19.7 µM; in series [7] it was more than 62.1 µM. Moreover, the GFP-LC3 puncta formation result in series [2] is listed as “induce GFP-LC3 puncta formation”. Further, in series [3], the “Ca2+ ATPase activity of SERCA” value is given as “inhibited”. The “clearance of overexpressed EGFP-tagged mutant huntingtin” value in series [4] was “enhance the clearance”. Also, in series [5], the “cell viability of mutant huntingtin overexpressed PC 12 cells” value is “enhance the cell viability”. The huntingtin aggregates-mediated cytotoxicity entry in series [5] is reported as “reduce”. Further, the cell death entry in series [6] was “not”.
